Data published in patent publication US11850247B2, “Antiviral compounds” (REGENTS OF THE UNIVERSITY OF MINNESOTA, priority 2020, dated 2023).

Key:
[1] = Microsomal stability assay, human liver microsomes; assay type: in vitro ADME; details: human liver microsomes, 1 μM compound, NADPH
Experimental: (§1) The in vitro microsomal stability assay was conducted in duplicate in mouse and human liver microsomal systems, which were supplemented with nicotinamide adenine dinucleotide phosphate (NADPH) as a cofactor. […] The reaction was initiated by addition of 1 mM NADPH, followed by incubation at 37° C. A negative control was performed in parallel in the absence of NADPH to measure any chemical instability or non-NADPH dependent enzymatic degradation for each compound. At various time points (0, 5, 15, 30, and 60 minutes), 1 volume of reaction aliquot was taken and quenched with 3 volumes of acetonitrile containing an appropriate internal standard and 0.1% formic acid. The samples were then vortexed and centrifuged at 15,000 rpm for 5 minutes at 4° C. The supernatants were collected and analyzed by LC-MS/MS to determine the in vitro metabolic half-life (t1/2).

[2] = Microsomal stability assay, mouse liver microsomes; assay type: in vitro ADME; details: NADPH
Experimental: as §1

HIV-1 = test: Anti-HIV-1 activity in TZM-GFP cells (viral LTR-activated GFP expression); assay type: cell-based; details: for EC50: Human immunodeficiency virus 1, HIV-1 strain MOI=1, GFP positive cells counted after 48 hours; for inhibition at 2 µM: Human immunodeficiency virus 1, 2 μM compound; for inhibition at 2 µM / inhibition at 20 µM: HIV-1 MOI=1; for inhibition at 20 µM: Human immunodeficiency virus 1, 20 μM compound
Experimental: The potency of HIV-1 inhibition by a compound was based on its inhibitory effect on viral LTR-activated GFP expression compared with that of compound-free (DMSO) controls. Briefly, TZM-GFP cells were plated at density of 1×10^4 cells per well in a 96-well plate. 24 hours later, media was replaced with increasing concentrations of compound. 24 hours post treatment, cells were exposed to an HIV-1 strain (MOI=1).
(§2) The cytotoxicity of each compound was also determined in TZM-GFP cells. Cells were plated at a density of 1×10^4 cells per well in a 96-well plate and were continuously exposed to increasing concentrations of a compound for 72 hours. The number of viable cells in each well was determined using a Cell Proliferation Kit II (XTT), and 50% cytotoxicity concentration (CC50) values were determined. All the cell-based assays were conducted in duplicate and in at least two independent experiments. For the EC50 and CC50 dose responses, values were plotted in GraphPad Prism 5 and analyzed with the log (inhibitor) vs. normalized response-variable slope equation. Final values were calculated in each independent assay and the average values were determined. Statistical analysis (calculation of standard deviation) was performed by using Microsoft Excel.

[3] = Cytotoxicity in TZM-GFP cells (XTT); assay type: cell-based; details: human, 72 hours exposure, XTT
Experimental: as §2

[4] = target: covalently-crosslinked hexameric CA A14C/E45C/W184A/M185A (CA121) (Human immunodeficiency virus type 1 group M subtype B, UniProt P12493, A146C/E177C/M317A/W316A); test: Thermal shift assay (TSA), CA hexamer stability; assay type: binding, HIV-1; details: compound 20 μM, ΔTm=Tm−T0 vs DMSO
[5] = pH 7.4, with Cobicistat 0.5 μM (CYP3A inhibitor), with 0.5 μM Cobicistat (CYP3A inhibitor), read-out: HLM (+Cobi) half-life (t1/2)
[6] = 1 μM compound, with 0.5 μM Cobicistat (CYP3A inhibitor)
[7] = 1 μM compound, without Cobicistat
[8] = pH 7.4, without Cobicistat, read-out: HLM half-life (t1/2)
[9] = pH 7.4, 1 μM compound, without Cobicistat, read-out: MLM half-life (t1/2)
[10] = pH 7.4, with Cobicistat 0.5 μM (CYP3A inhibitor), 1 μM compound, with 0.5 μM Cobicistat (CYP3A inhibitor), read-out: MLM (+Cobi) half-life (t1/2)

SMILES	half-life at 1 μM [1, 8] [min]	half-life at 1 μM [2, 9] [min]	EC50 (HIV-1) [µM]	CC50 at 72 h [3] [µM]	TSA ΔTm (° C.) [4] [°C]	other results
CCN(C(=O)[C@H](Cc1ccccc1)NC(=O)CNC(=O)c1ccccc1)c1ccccc1 [drawing 194]	–	–	–	–	–	HLM half-life (t1/2) ([1]; without Cobicistat): 14 min; half-life at 1 μM [1, 5]: 231 min; MLM (+Cobi) half-life (t1/2) [2, 6]: 28 min; MLM half-life (t1/2) [2, 7]: 2.4 min
CN(C(=O)[C@H](Cc1ccccc1)NC(=O)CNC(=O)c1ccccc1)c1ccc(Cl)cc1 [drawing 192]	–	–	–	–	–	HLM half-life (t1/2) ([1]; without Cobicistat): 36 min; half-life at 1 μM [1, 5]: 141 min; MLM (+Cobi) half-life (t1/2) [2, 6]: 52 min; MLM half-life (t1/2) [2, 7]: 13 min
Cc1ccc(N(C)C(=O)[C@H](Cc2ccccc2)NC(=O)CN2C(=O)NC3(CCCCC3)C2=O)cc1 [drawing 187]	3.3	1.2	–	–	–	–
CN(C(=O)[C@H](Cc1ccccc1)NC(=O)CN1C(=O)NC2(CCCCC2)C1=O)c1ccc(F)cc1 [drawing 188]	1.1	0.5	–	–	–	–
Cc1ccc(N(C)C(=O)[C@H](Cc2ccccc2)NC(=O)Cc2cccc3ccccc23)cc1 [Example 17, (S)—N-methyl-2-(2-(naphthalen-1-yl)acetamido)-3-phenyl-N-(p-tolyl)propanamide]	–	–	1 ± 0.2	< 50	5.7	–
CN(C(=O)[C@H](Cc1ccccc1)NC(=O)Cc1ccc2ccccc2c1)c1ccc(Cl)cc1 [drawing 182]	2.7	1.4	–	–	–	half-life at 1 μM [1, 5]: 239 min; half-life at 1 μM [2, 10]: 18 min
Cc1ccc(N(C)C(=O)[C@H](Cc2ccccc2)NC(=O)CNC(=O)c2ccccc2)cc1 [drawing 191]	–	–	–	–	–	HLM (+Cobi) half-life (t1/2) ([1]; with 0.5 μM Cobicistat (CYP3A inhibitor)): 42 min; HLM half-life (t1/2) ([1]; without Cobicistat): 22 min; MLM (+Cobi) half-life (t1/2) [2, 6]: 34 min; MLM half-life (t1/2) [2, 7]: 5.0 min
Cc1cccc2c1NC(=O)C2CC(=O)N[C@@H](Cc1ccccc1)C(=O)N(C)c1cccc(F)c1 (stereo partly shown) [drawing 178]	2.5	1.1	–	–	–	half-life at 1 μM [1, 5]: 433 min; half-life at 1 μM [2, 10]: 20 min
CN(C(=O)[C@H](Cc1ccccc1)NC(=O)CNC(=O)c1ccccc1)c1ccc(Cl)cc1 [Example 36, (S)—N-(2-((1-((4-chlorophenyl)(methyl)amino)-1-oxo-3-phenylpropan-2-yl)amino)-2-oxoethyl)benzamide]	–	–	0.88 ± 0.02	> 50	4.1	–
Cc1ccc(N(C)C(=O)[C@H](Cc2ccccc2)NC(=O)Cc2ccc3ccccc3c2)cc1 [Example 11, (S)—N-methyl-2-(2-(naphthalen-2-yl)acetamido)-3-phenyl-N-(p-tolyl)propanamide]	–	–	0.99 ± 0.005	< 50	6.4	–
CN(C(=O)[C@H](Cc1ccccc1)NC(=O)Cc1cccc2ccccc12)c1ccccc1 [drawing 183]	0.6	0.5	–	–	–	–
CN(C(=O)[C@H](Cc1ccccc1)NC(=O)CN1C(=O)NC2(CCCCC2)C1=O)c1ccccc1 [Example 22, 2-(2-(2,4-dioxo-1,3-diazaspiro[4.5]decan-3-yl)acetamido)-N-methyl-N,3-diphenylpropanamide]	–	–	8.9 ± 1.5	> 100	1.3	–
CN(C(=O)[C@H](Cc1ccccc1)NC(=O)Cc1ccc2ccccc2c1)c1cccc(Cl)c1 [Example 13, (S)—N-(3-chlorophenyl)-N-methyl-2-(2-(naphthalen-2-yl)acetamido)-3-phenylpropanamide]	–	–	–	< 50	4.3	inhibition at 2 µM (HIV-1): 0%; inhibition at 20 µM (HIV-1): 94%
CN(C(=O)[C@H](Cc1ccccc1)NC(=O)Cc1ccc2ccccc2c1)c1ccccc1 [Example 10, (S)—N-methyl-2-(2-(naphthalen-2-yl)acetamido)-N,3-diphenylpropanamide]	–	–	–	< 50	4.8	inhibition at 2 µM (HIV-1): 40%; inhibition at 20 µM (HIV-1): 98%
CN(C(=O)[C@H](Cc1ccccc1)NC(=O)Cc1cccc2ccccc12)c1ccc(Cl)cc1 [Example 18, (S)—N-(4-chlorophenyl)-N-methyl-2-(2-(naphthalen-1-yl)acetamido)-3-phenylpropanamide]	–	–	0.83 ± 0.03	< 50	7.2	–
